In US11980607B2, “Methods of treating malignant lymphoproliferative disorders” (Actuate Therapeutics Inc., priority 2018, dated 2024):

Assays:
[1] = test system: SUDHL-4, KPUM-UH1, Karpas 22, or TMD8 lymphoma cells; experiment: cells; type: cell-based
Description: FIGS. 1A-1E show the viability and proliferation of lymphoma cells with 9-ING-41 treatment. 10,000 cells (SUDHL-4 (FIG. 1B), KPUM-UH1 (FIG. 1C), Karpas 422 (FIG. 1D), TMD8 (FIG. 1E)) per 96-well plate well were left untreated or treated with 1 μM 9-ING-41 in triplicate, and the number of cells on days 1, 3, 5 and 7 were calculated using the MTS assay. Briefly, 20 μL of MTS reagent was added to cells and incubated for 2 hours and, the absorbance at 490 nm (A490) was read using a Biotek plate reader. Absorbance at OD=490 nm increases proportionally to cell density. Error bars represent std. deviation between replicates.
Daudi (Burkitt) and SUDHL-4 (germinal center (GC) diffuse large B-cell lymphoma (DLBCL)) cell lines were purchased from […]. (ATCC). KPUM-UH1 (double hit DLBCL) cells were obtained from Junya Kuroda, Kyoto Prefectural University of Medicine, Kyoto, Japan. All cell lines were cultured aseptically and maintained in a water-jacketed incubator (Thermo-Forma) at 37° C. with 5% CO2 and fed with RPMI-1640 (Corning) containing […] glutamine, 10% FBS (Sigma), and antibiotic and antimycotic reagent (Gemini Bioproducts; final concentrations—100 units/mL penicillin G, 100 μg/mL streptomycin sulfate, and 250 ng/mL amphotericin B). Karpas 422 (GC-DLBCL) cells was purchased from Sigma. […] All cell numbers for assays were quantified using a TC20 automated cell counter (BioRad). […]
Cell viability at day 3 and proliferation over the course of 7 days were measured after treating cells with varying concentrations of 9-ING-41 using the Promega CellTiter 96® AQueous One Solution Cell Proliferation Assay reagent (MTS) in accordance with the manufacturer's instructions. […] The absorbance at 490 nm (A490) was determined using a Powerwave XS plate reader (Biotek).
All lymphoma cell lines used in this study express active GSK-3β. SUDHL-4, KPUM-UH1, […], or TMD8 lymphoma cells were plated, and cell numbers on days 1, 3, 5 and 7 were measured using the MTS assay. […]

[2] = test system: phospho-c-MYC in KPUM-UH1 cells; experiment: Western blot analysis of c-MYC; type: cell-based; settings: KPUM-UH1 double-hit lymphoma cell line
Description: c-MYC levels were analyzed in KPUM-UH1 cells via western blot for 9-ING-41 alone and the combination of 9ING-41 with either Venetoclax or BAY-1143572. Around 10 million cells were spun down at 200 rcf for 5 minutes and rinsed once with PBS before lysing in 50 μl of Millipore Milliplex MAP lysis buffer supplemented with protease and phosphatase inhibitors (Roche). Protein denatured in 4× sample buffer supplemented with β-mercaptoethanol (Bio-Rad) was loaded per well. Bio-Rad stain-free Criterion 4-20% precast gels were used. After running the gel at 140 volts for 90 minutes, Bio-Rad gel imager was used to activate the stain-free technology to visualize the total protein levels loaded in the gel. A nitrocellulose turbo-transfer pack and system (Bio-Rad) was then used to transfer the proteins to the membrane, and 5% w/v dry milk in Tris-buffered saline-0.1% Tween 20 (TBS-T) was used to block the membranes for 1 hour. Membranes were then incubated with the primary antibody diluted in 5% BSA in TBS-T overnight. Membranes were then rinsed in TBS-T 3 times (one 15 minute wash and two 5 minutes washes) and then incubated with the corresponding secondary antibody-conjugated with HRP for 1 hour and rinsed with TBS-T as before. […] Quantification of the band intensities were performed using Image J software (NIH).

[3] = test system: primary lymphoma cells freshly isolated from patients; experiment: Proliferation of primary lymphoma patient cells; type: cell-based, human; settings: 5 patient samples (MCL, high grade B-cell lymphoma, follicular 3B, DLBCL, angioimmunoblastic TCL)
Source text: (A) Immunoblot of GSK-3α and GSK-3β proteins showing overexpression in patient samples vs normal B-cell control. P1: MCL; P2: High grade B-cell lymphoma; P3: follicular large B-cell lymphoma 3B; P4: DLBCL; P5: angioimmunoblastic T-cell lymphoma. (B) 9-ING-41 inhibited proliferation in all 5 patient samples. (C) Immunohistochemistry staining of GSK-3β on paraffin tissue sections of patients with various lymphoma. Representative images show the spectrum of GSK-3β (in brown) overexpression in different lymphoma samples. […] Images were collected under 40× magnification.
Lymphoma tissue samples were obtained from patients after written informed consent. This Lymphoma SPORE biospecimens protocol was approved by the Mayo Clinic Institutional Review Board in accordance with the Declaration of Helsinki. All primary patient samples were biopsy tissues from spleen or lymph nodes. Fresh tissue samples were gently dissociated into cell suspension and subjected to Ficoll-Paque density gradient centrifugation. Primary lymphoma cells were then used directly for proliferation assay, or stored in −80° C. for Western analysis later after lymphoma diagnosis confirmation.
Cells were seeded at 1×10^4 cells/well in 96 well plates, and incubated with 9-ING-41 at indicated concentrations for 48 hours followed by pulsing with tritium labeled thymidine for overnight before being analyzed for thymidine uptake. […]

## Cn1cc(C2=C(c3coc4ccc(F)cc34)C(=O)NC2=O)c2cc3c(cc21)OCO3 [9-ING-41, 3-(5-Fluorobenzofuran-3-yl)-4-(5-methyl-5H-[1,3]dioxolo[4,5-f]indol-7-yl)pyrrole-2,5-dione]
[1]; 1 μM 9-ING-41, day 7, all lymphoma cell lines, p<0.05
  Proliferation on day 7, relative to control: less than 30%
[1]; 72 h, read-out: Reduction of cell viability on day 3
  cytotoxicity at 1 µM: 40 to 70%
[1]; tested 0.1, 0.5, 1, 5 and 10 μM
  Concentration at which a reduction in viability was seen: ≥ 0.5 µM
[2]
  Effect on phospho-c-MYC: phospho-c-MYC is modified
[3]
  Antiproliferative effect in primary patient cells: similarly responsive to the antiproliferative effects
